Assay results as given in patent publication US12643881B2, “Bicyclic amine CDK12 inhibitors” (Incyte Corporation, priority 2021, dated 2026).

molecular target: T1, CDK12 complexed with Cyclin K (Homo sapiens, UniProt Q9NYV4); assay: Alternative CDK Enzymatic Assays (HTRF, pre-incubation with compounds and 1 mM ATP), Example A2; type: biochemical; settings: enzyme pre-incubated with compounds and 1 mM ATP for 60 minutes; reaction 120 minutes at 25° C.
T1 construct: GST (N)
Text: Example A2. Alternative CDK Enzymatic Assays
The following activity of the CDK enzymes in complex with their respective cyclins we assayed: CDK1 complexed with Cyclin B1; CDK2 complexed with Cyclin E1; CDK4 complexed with Cyclin D1; CDK6 complexed with Cyclin D1; CDK6 complexed with Cyclin D3; CDK9 complexed with Cyclin T1; CDK7 complexed with Cyclin H/MAT1; CDK2 complexed with Cyclin A2; CDK5 complexed with p35; CDK12 complexed with Cyclin K; CDK13 complexed with Cyclin K. These in vitro enzyme activity are assayed using homogeneous time-resolved energy transfer (HTRF), which measures phosphorylation of a peptide substrate. The LANCER Ultra kinase assay (PerkinElmer) uses a ULight™-labeled EIF4E-binding protein 1 (THR37/46) peptide (DYSTTPGGTLFSTTPGTRI (SEQ ID NO: 1)) substrate and a Europium-labeled anti-phospho-4E-BP1 antibody (CDK2, CDK1, CDK4, CDK6, CDK9, CDK12, CDK13) or ULight™-labeled Myelin Basic Protein peptide (VTPRTPPP (SEQ ID NO: 2)) substrate and a Europium-labeled anti-phospho-MBP antibody (CDK7). Each CDK enzyme activity assays utilized human CDK co-expressed as N-terminal GST-tagged protein with its full length cyclin partner using a baculovirus expression system.
Enzyme was pre-incubated with compounds and 1 mM ATP for 60 minutes (CDK 1, 2, 4, 6, 9, 7, 12, 13) prior to the addition of ATP and Ulight-peptide (1 mM and 50 nM final, respectively), in assay buffer containing 50 mM HEPES pH 7.5, 1 mM EGTA, 10 mM MgCl2, 2 mM DTT, 0.05 mg/mL BSA, and 0.01% Tween 20. The reaction was then incubated for 120 minutes at 25° C. incubator. The reactions were stopped by the addition of EDTA and Europium labeled antibody, for a final concentration of 15 mM and 0.5-1.5 nM, respectively. HTRF signals were read after 15-120 minutes. A ratio of fluorescence transferred to the labeled substrate (665 nm) relative to fluorescence of the Europium donor (620 nm) represents the extent of phosphorylation. Ratios for treated wells were normalized to DMSO only (100% activity) and no enzyme (0% activity) controls. Normalized data was analyzed using a three or four parameter dose response curve to determine IC50 for each compound and are shown in Table B. Control reference inhibitors were included on each plate.

T1 sequence (Q9NYV4 whole entry): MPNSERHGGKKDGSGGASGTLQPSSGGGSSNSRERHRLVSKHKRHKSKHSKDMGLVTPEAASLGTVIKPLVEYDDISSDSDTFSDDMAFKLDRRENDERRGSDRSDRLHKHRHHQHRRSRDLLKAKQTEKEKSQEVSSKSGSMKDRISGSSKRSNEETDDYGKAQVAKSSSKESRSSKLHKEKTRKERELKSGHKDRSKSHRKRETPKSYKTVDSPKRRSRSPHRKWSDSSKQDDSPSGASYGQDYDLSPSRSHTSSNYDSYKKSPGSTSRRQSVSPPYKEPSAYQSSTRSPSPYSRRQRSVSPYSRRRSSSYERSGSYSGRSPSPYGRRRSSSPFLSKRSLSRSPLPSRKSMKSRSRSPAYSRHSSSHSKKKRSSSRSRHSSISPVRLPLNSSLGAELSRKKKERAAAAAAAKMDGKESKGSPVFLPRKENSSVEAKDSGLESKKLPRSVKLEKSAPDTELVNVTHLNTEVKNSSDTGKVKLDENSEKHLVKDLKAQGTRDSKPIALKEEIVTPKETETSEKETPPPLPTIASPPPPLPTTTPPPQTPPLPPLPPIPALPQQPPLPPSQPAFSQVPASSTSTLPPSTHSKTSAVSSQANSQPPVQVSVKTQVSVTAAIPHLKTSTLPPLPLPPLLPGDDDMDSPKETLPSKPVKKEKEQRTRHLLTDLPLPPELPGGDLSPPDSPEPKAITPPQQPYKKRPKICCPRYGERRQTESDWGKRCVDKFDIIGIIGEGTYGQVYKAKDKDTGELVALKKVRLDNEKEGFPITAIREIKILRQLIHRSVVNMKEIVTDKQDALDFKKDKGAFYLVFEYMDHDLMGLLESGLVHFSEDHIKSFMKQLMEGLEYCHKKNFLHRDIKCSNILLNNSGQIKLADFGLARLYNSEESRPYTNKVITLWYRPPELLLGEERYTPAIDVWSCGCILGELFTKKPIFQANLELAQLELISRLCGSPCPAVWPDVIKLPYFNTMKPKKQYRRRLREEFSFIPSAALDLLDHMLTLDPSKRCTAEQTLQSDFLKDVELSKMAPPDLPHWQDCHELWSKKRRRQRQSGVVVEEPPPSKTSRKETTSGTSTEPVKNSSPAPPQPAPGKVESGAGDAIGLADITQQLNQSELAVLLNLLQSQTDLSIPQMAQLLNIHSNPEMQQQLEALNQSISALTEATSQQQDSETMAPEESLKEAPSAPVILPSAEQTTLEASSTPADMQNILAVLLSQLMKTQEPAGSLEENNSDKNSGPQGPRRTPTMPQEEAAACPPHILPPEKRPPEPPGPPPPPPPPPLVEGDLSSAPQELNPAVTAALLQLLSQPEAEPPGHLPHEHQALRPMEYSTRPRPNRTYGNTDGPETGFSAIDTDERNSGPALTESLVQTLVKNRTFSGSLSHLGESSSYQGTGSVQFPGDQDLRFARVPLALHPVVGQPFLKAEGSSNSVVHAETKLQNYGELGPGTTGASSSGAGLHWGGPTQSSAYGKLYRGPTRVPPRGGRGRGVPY
T1 sequence (O75909 whole entry partner): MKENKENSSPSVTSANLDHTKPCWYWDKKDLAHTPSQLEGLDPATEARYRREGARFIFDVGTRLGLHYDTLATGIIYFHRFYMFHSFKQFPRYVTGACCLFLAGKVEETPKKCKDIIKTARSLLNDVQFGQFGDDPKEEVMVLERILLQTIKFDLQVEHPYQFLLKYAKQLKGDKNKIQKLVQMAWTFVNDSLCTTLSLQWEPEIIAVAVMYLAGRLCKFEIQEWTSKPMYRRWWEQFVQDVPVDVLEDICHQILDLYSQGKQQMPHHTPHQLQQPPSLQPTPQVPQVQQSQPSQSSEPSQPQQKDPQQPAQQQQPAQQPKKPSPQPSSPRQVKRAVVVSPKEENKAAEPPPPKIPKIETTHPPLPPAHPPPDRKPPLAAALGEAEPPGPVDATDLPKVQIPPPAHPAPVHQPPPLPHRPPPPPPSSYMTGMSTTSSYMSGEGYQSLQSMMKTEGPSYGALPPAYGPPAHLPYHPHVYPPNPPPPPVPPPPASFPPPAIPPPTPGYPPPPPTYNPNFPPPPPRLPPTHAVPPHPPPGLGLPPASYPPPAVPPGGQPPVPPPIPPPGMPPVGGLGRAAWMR

IC50 | Compound
50 to 500 nM | C=CC(=O)Nc1cc2nc(N3C[C@H](F)C[C@@H](Nc4ncc(C#N)s4)C3)n(C)c2cc1C [Example 162, N-(2-((3R,5R)-3-((5-Cyanothiazol-2-yl)amino)-5-fluoropiperidin-1-yl)-1,6-dimethyl-1H-benzo[d]imidazol-5-yl)acrylamide]
< 50 nM | Cc1cc2c(cc1NC(=O)C#CCO)nc(N1C[C@H](F)C[C@@H](Nc3ncc(C(F)(F)F)cn3)C1)n2C [Example 115, N-(2-((3R,5R)-3-Fluoro-5-((5-(trifluoromethyl)pyrimidin-2-yl)amino)piperidin-1-yl)-1,6-dimethyl-1H-benzo[d]imidazol-5-yl)-4-hydroxybut-2-ynamide]
50 to 500 nM | COC/C=C/C(=O)Nc1cc2nc(N3C[C@H](F)C[C@@H](Nc4ncc(C(F)(F)F)cn4)C3)n(C)c2cc1C [Example 121, (E)-N-(2-((3R,5R)-3-Fluoro-5-((5-(trifluoromethyl)pyrimidin-2-yl)amino)piperidin-1-yl)-1,6-dimethyl-1H-benzo[d]imidazol-5-yl)-4-methoxybut-2-enamide]
50 to 500 nM | C=CC(=O)N1CCCCC1c1ccc2c(c1)nc(N1C[C@H](O)C[C@@H](Nc3ncc(C(F)(F)F)cn3)C1)n2C (stereo partly drawn) [Example 87, 1-(2-(2-((3R,5R)-3-Hydroxy-5-((5-(trifluoromethyl)pyrimidin-2-yl)amino)piperidin-1-yl)-1-methyl-1H-benzo[d]imidazol-5-yl)piperidin-1-yl)prop-2-en-1-one]
< 50 nM | C=CC(=O)Nc1cc2nc(N3C[C@H](F)C[C@@H](Nc4ncc(C#N)c(CC)n4)C3)n(C)c2cc1C [Example 161, N-(2-((3R,5R)-3-((5-Cyano-4-ethylpyrimidin-2-yl)amino)-5-fluoropiperidin-1-yl)-1,6-dimethyl-1H-benzo[d]imidazol-5-yl)acrylamide]
< 50 nM | C=CC(=O)Nc1cc2nc(N3CCC[C@@H](Nc4ncc(C(F)(F)F)cn4)C3)n(C)c2cc1OC [Example 166, (R)—N-(6-Methoxy-1-methyl-2-(3-((5-(trifluoromethyl)pyrimidin-2-yl)amino)piperidin-1-yl)-1H-benzo[d]imidazol-5-yl)acrylamide]
< 50 nM | C=CC(=O)Nc1cc2nc(N3CCC[C@@H](Nc4ncc(C(F)(F)F)cn4)C3)n(C)c2cc1C [Example 102, (R)—N-(1,6-Dimethyl-2-(3-((5-(trifluoromethyl)pyrimidin-2-yl)amino)piperidin-1-yl)-1H-benzo[d]imidazol-5-yl)acrylamide]

Continued, compound first:

Compound | IC50
C=CC(=O)Nc1cc2nc(N3C[C@H](F)C[C@@H](Nc4ncc(C(F)(F)F)cn4)C3)n(C)c2cc1C(=O)N1CCCC1 [Example 138, N-(2-((3R,5R)-3-Fluoro-5-((5-(trifluoromethyl)pyrimidin-2-yl)amino)piperidin-1-yl)-1-methyl-6-(pyrrolidine-1-carbonyl)-1H-benzo[d]imidazol-5-yl)acrylamide] | 50 to 500 nM
C=CC(=O)Nc1c(C)cc2c(nc(N3C[C@H](F)C[C@@H](Nc4ncc(C(F)(F)F)cn4)C3)n2C)c1Br [Example 146, N-(4-Bromo-2-((3R,5R)-3-fluoro-5-((5-(trifluoromethyl)pyrimidin-2-yl)amino)piperidin-1-yl)-1,6-dimethyl-1H-benzo[d]imidazol-5-yl)acrylamide] | 50 to 500 nM
C=CC(=O)Nc1cc2nc(N3C[C@H](F)C[C@@H](Nc4ccc(C(F)(F)F)cn4)C3)n(C)c2cc1C [Example 159] | 50 to 500 nM
C=CC(=O)Nc1cc2nc(N3C[C@H](F)C[C@@H](Nc4ncc(C#N)cn4)C3)n(C)c2cc1C [Example 96, N-(2-((3R,5R)-3-((5-cyanopyrimidin-2-yl)amino)-5-fluoropiperidin-1-yl)-1,6-dimethyl-1H-benzo[d]imidazol-5-yl)acrylamide] | 50 to 500 nM
N-(2-((3R,5R)-3-Hydroxy-5-((5-(trifluoromethyl)pyrimidin-2-yl)amino)piperi-dine-1-yl)-1,6-dimethyl-1H-benzo[d]imidazol-5-yl)acrylamide [Example 94] | 50 to 500 nM
